Structures are written as SMILES. A value given as a limit tells only on which side of the number the result lay.

This experiment addresses Glutamate receptor ionotropic, AMPA (Rattus norvegicus, UniProt P19490+P19491+P19492+P19493). As to the kind of experiment: Inhibition of Ca 2+ Influx in cultured rat cerebellar granule cells, mediated by ionotropic glutamate receptor AMPA. It is filed as functional.
Turning to `O=c1c2cc(F)ccc2nc(/C(O)=C/c2ccccc2F)n1-c1ccccc1Cl`, the IC50 (commonly the midpoint of a concentration-inhibition curve) is greater than 30 µM.

`O=c1c2cc(F)ccc2nc(COc2ccccc2F)n1-c1ccccc1Cl` gave an IC50 greater than 10 µM.

`CC(=O)N(Cc1nc2ccc(F)cc2c(=O)n1-c1ccccc1Cl)c1ccccc1F` had an IC50 greater than 3 µM.

The molecule `O=c1c2cc(F)ccc2nc(CNc2ccccc2F)n1-c1ccccc1Cl` gave an IC50 of 0.013 µM.

For `N#Cc1ccccc1NCc1nc2ccc(F)cc2c(=O)n1-c1ccccc1Cl`, the IC50 is 0.042 µM.

On to `Cc1cccc(NCc2nc3ccc(F)cc3c(=O)n2-c2ccccc2Cl)c1`, for which the midpoint of inhibition, the IC50, lay at 0.213 µM.

In the case of `CN(Cc1nc2ccc(F)cc2c(=O)n1-c1ccccc1Cl)c1ccccc1F`, the IC50 was 2 µM. Compared with the last molecule, the IC50 is about 9.4-fold higher.

Take `O=c1c2cc(F)ccc2nc(CNCc2ccccc2F)n1-c1ccccc1Cl`: the IC50 is greater than 0.3 µM.

As to `O=c1c2cc(F)ccc2nc(CC(O)c2ccccc2F)n1-c1ccccc1Cl` (stereo in doubt; 3a), the 50% inhibitory concentration (IC50) stood at 0.24 µM.

Consider `O=c1c2cc(F)ccc2nc(CC(O)c2ccccc2F)n1-c1ccccc1Cl` (stereo in doubt; 3b), for which the IC50 is greater than 3 µM.

For the origin of these results see ChEMBL document CHEMBL1134483, “Quinazolin-4-one alpha-amino-3-hydroxy-5-methyl-4-isoxazolepropionic acid (AMPA) receptor antagonists: structure-activity relationship of the C-2 side chain tether” (J Med Chem, 2001).
